Reference: PubChem BioAssay (NCI)
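A five-concentration, 48-hour dose response in 96-well plates underlies each endpoint, interpolated linearly between surrounding concentrations. TGI marks complete inhibition of growth.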

Tests used:
Test in all cases: NCI-60 cell line screen, 48 h
[1] = test system: LXFL 529 NSCLC
[2] = test system: SK-MEL-5 melanoma
[3] = test system: SK-OV-3 ovarian
[4] = test system: EKVX NSCLC
[5] = test system: UACC-62 melanoma
[6] = test system: CCRF-CEM leukemia
[7] = test system: HOP-18 NSCLC
[8] = test system: SNB-78 CNS
[9] = test system: TK-10 renal
[10] = test system: 786-0 renal
[11] = test system: COLO 205 colon
[12] = test system: U251 CNS
[13] = test system: HL-60(TB) leukemia
[14] = test system: OVCAR-4 ovarian
[15] = test system: XF 498 CNS
[16] = test system: KM12 colon
[17] = test system: A549 NSCLC
[18] = test system: UACC-257 melanoma
[19] = test system: SK-MEL-2 melanoma
[20] = test system: NCI-H522 lung
[21] = test system: HOP-62 NSCLC
[22] = test system: MALME-3M melanoma
[23] = test system: HOP-92 NSCLC
[24] = test system: HT29 colon
[25] = test system: RPMI-8226 leukemia
[26] = test system: UO-31 renal
[27] = test system: DMS 114 small cell lung
[28] = test system: NCI-H460 lung
[29] = test system: NCI-H226 lung
[30] = test system: SNB-19 CNS
[31] = test system: HCT-116 colon
[32] = test system: SK-MEL-28 melanoma
[33] = test system: MOLT-4 leukemia
[34] = test system: ACHN renal
[35] = test system: SR leukemia
[36] = test system: HCC-2998 colon
[37] = test system: CAKI-1 renal
[38] = test system: SW-620 colon
[39] = test system: K-562 leukemia
[40] = test system: SF-539 CNS
[41] = test system: DMS 273 small cell lung
[42] = test system: DLD-1 colon
[43] = test system: A498 renal
[44] = test system: OVCAR-8 ovarian
[45] = test system: IGROV1 ovarian
[46] = test system: M14 melanoma
[47] = test system: OVCAR-3 ovarian
[48] = test system: NCI-H23 lung
[49] = test system: OVCAR-5 ovarian
[50] = test system: SNB-75 CNS
[51] = test system: SF-268 CNS
[52] = test system: M19-MEL melanoma
[53] = test system: HCT-15 colon
[54] = test system: SF-295 CNS
[55] = test system: LOX IMVI melanoma
[56] = test system: RXF-631 renal
[57] = test system: KM20L2 colon
[58] = test system: SN12C renal

CCC1(c2c(F)c(F)c(N)c(F)c2F)CCC(=O)NC1=O (centres undefined)
TGI [1]: > 100 µM
TGI [2]: > 100 µM
TGI [3]: > 100 µM
TGI [4]: > 100 µM
TGI [5]: > 100 µM
TGI [6]: > 100 µM
TGI [7]: > 100 µM
TGI [8]: > 100 µM
TGI [9]: > 100 µM
TGI [10]: > 100 µM
TGI [11]: > 100 µM
TGI [12]: > 100 µM
TGI [13]: > 100 µM
TGI [14]: > 100 µM
TGI [15]: > 100 µM
TGI [16]: > 100 µM
TGI [17]: > 100 µM
TGI [18]: > 100 µM
TGI [19]: > 100 µM
TGI [20]: > 100 µM
TGI [21]: > 100 µM
TGI [22]: > 100 µM
TGI [23]: > 100 µM
TGI [24]: > 100 µM
TGI [25]: > 100 µM
TGI [26]: > 100 µM
TGI [27]: > 100 µM
TGI [28]: > 100 µM
TGI [29]: > 100 µM
TGI [30]: > 100 µM
TGI [31]: > 100 µM
TGI [32]: > 100 µM
TGI [33]: > 100 µM
TGI [34]: > 100 µM
TGI [35]: > 100 µM
TGI [36]: > 100 µM
TGI [37]: > 100 µM
TGI [38]: > 100 µM
TGI [39]: > 100 µM
TGI [40]: > 100 µM
TGI [41]: > 100 µM
TGI [42]: > 100 µM
TGI [43]: > 100 µM
TGI [44]: > 100 µM
TGI [45]: > 100 µM
TGI [46]: > 100 µM
TGI [47]: > 100 µM
TGI [48]: > 100 µM
TGI [49]: > 100 µM
TGI [50]: > 100 µM
TGI [51]: > 100 µM
TGI [52]: > 100 µM
TGI [53]: > 100 µM
TGI [54]: > 100 µM
TGI [55]: > 100 µM

CN(C(=O)C12C3C4C1C1C4(C(=O)C45C6C7C4C4C5C6C74C)C3C12C)C(C)(C)C (centres undefined)
TGI [1]: > 100 µM
TGI [56]: > 100 µM
TGI [2]: 81.7 µM
TGI [3]: > 100 µM
TGI [4]: > 100 µM
TGI [5]: > 100 µM
TGI [6]: > 100 µM
TGI [8]: > 100 µM
TGI [9]: > 100 µM
TGI [10]: > 100 µM
TGI [11]: > 100 µM
TGI [12]: > 100 µM
TGI [13]: 43.2 µM
TGI [15]: > 100 µM
TGI [16]: > 100 µM
TGI [17]: > 100 µM
TGI [18]: > 100 µM
TGI [19]: > 100 µM
TGI [20]: > 100 µM
TGI [21]: > 100 µM
TGI [22]: > 100 µM
TGI [23]: > 100 µM
TGI [24]: 35.1 µM
TGI [26]: > 100 µM
TGI [27]: > 100 µM
TGI [28]: > 100 µM
TGI [29]: > 100 µM
TGI [30]: > 100 µM
TGI [57]: 85.3 µM
TGI [31]: > 100 µM
TGI [32]: > 100 µM
TGI [33]: > 100 µM
TGI [34]: > 100 µM
TGI [35]: > 100 µM
TGI [36]: > 100 µM
TGI [37]: > 100 µM
TGI [38]: > 100 µM
TGI [39]: > 100 µM
TGI [40]: > 100 µM
TGI [41]: > 100 µM
TGI [42]: > 100 µM
TGI [43]: > 100 µM
TGI [58]: > 100 µM
TGI [44]: > 100 µM
TGI [45]: > 100 µM
TGI [46]: > 100 µM
TGI [48]: > 100 µM
TGI [49]: > 100 µM
TGI [50]: > 100 µM
TGI [51]: > 100 µM
TGI [52]: > 100 µM
TGI [53]: > 100 µM
TGI [54]: > 100 µM
TGI [55]: > 100 µM
